# Source: US20070104652A1, “Pharmaceutical spray formulation comprising a hydro fluor alkane and an acylated cyclodextrin” (priority 2003, published 2007)
# What was measured:
# [1] = Efficacy of peracetylated beta cyclodextrin as HFA drug suspension stabiliser (phase separation recorded photographically); format: physicochemical; conditions: peracetylated β cyclodextrin at saturation level, phase separation much slower, suspension much finer, head space adhesion less
# Method: First, reference samples of pure drugs in HFAs were prepared. Then samples with solubilised peracetylated beta (β) cyclodextrin and micronised drug were prepared. The concentration of drug in these samples was the same as in the reference samples. The cyclodextrin concentration was at saturation level.
# The reference samples (pure drug) were prepared by weighing the drug in a PET vial. A valve was then crimped on the vial and propellant added under pressure. The vial was then sonicated for at least 15 minutes and left to equilibrate for one week.
# The drug—cyclodextrin samples were prepared by weighing a known amount of drug in a PET vial. The vial was then crimped with a continuous valve. The solution of peracetylated beta (β) cyclodextrin was prepared thus: a large amount of cyclodextrin was placed in large metallic can, it was crimped and filled with one of the propellants. This can was left to equilibrate for at least a week at room temperature. When equilibration was reached, the saturated cyclodextrin solution was filtered through a […] PTFE filter into the PET vials containing the known drug amounts. This way the maximum amount of soluble cyclodextrin was used in the suspensions. The concentration of drugs in the vials was then calculated through accurate recording of the weights of propellant/cyclodextrin added.
# The phase separation phenomenon present in both samples (pure drug and with the cyclodextrin) was then recorded photographically.
# [2] = Solubility of peracetylated cyclodextrins in HFA propellants, assessed visually; format: physicochemical; conditions: equilibrated one week, visual; for solubility in HFA 134a: room temperature; for solubility in HFA 227: HFA 227, room temperature
# Method: The solubility of peracetylated cyclodextrins (alpha, beta and gamma) in HFA propellants was assessed visually in clear PET vials crimped with a continuous pMDI valve. Known amounts of cyclodextrins were weighed into the PET vials. Continuous valves were crimped on the vial, and HFAs were added under pressure to the required amount. The samples were left to equilibrate over one week and were visually inspected. The solubility of the modified cyclodextrin at room temperature was evaluated by discriminating between samples that were clear by opposition to those samples that still had solid particles in suspension.
quality/stability of drug suspension with modified cyclodextrin versus pure drug sample ([1]; HFA 134a),quality/stability of drug suspension with modified cyclodextrin versus pure drug sample ([1]; HFA 227),solubility in HFA 134a [2],solubility in HFA 227 [2],Compound
improved,much improved,–,–,CCCC1O[C@@H]2C[C@H]3[C@@H]4CCC5=CC(=O)C=C[C@]5(C)[C@H]4[C@@H](O)C[C@]3(C)[C@]2(C(=O)CO)O1 (some centres unmarked) [Budesonide]
much improved,far more stable,–,–,CC(C)(C)NCC(O)c1cc(O)cc(O)c1 (centres unmarked) [Terbutaline Sulphate]
–,–,above 1 % w/w,above 0.5 % w/w,CC(=O)OCC1OC2OC3C(COC(C)=O)OC(OC4C(COC(C)=O)OC(OC5C(COC(C)=O)OC(OC6C(COC(C)=O)OC(OC7C(COC(C)=O)OC(OC1C(OC(C)=O)C2OC(C)=O)C(OC(C)=O)C7OC(C)=O)C(OC(C)=O)C6OC(C)=O)C(OC(C)=O)C5OC(C)=O)C(OC(C)=O)C4OC(C)=O)C(OC(C)=O)C3OC(C)=O (stereo not drawn) [peracetylated alpha (α) cyclodextrin]
–,–,above 1 % w/w,above 0.1 % w/w,peracetylated beta (β) cyclodextrin
